The values that follow come from patent US11230555B2, “Bicyclic RORγ modulators” (Escalier Biosciences B.V., priority 2018, dated 2022).

The experiment addresses T1, RORγt (Homo sapiens, UniProt P51449).
T1 construct: purchased reporter-cell kit
T1 sequence (P51449 269-508 limits assumed): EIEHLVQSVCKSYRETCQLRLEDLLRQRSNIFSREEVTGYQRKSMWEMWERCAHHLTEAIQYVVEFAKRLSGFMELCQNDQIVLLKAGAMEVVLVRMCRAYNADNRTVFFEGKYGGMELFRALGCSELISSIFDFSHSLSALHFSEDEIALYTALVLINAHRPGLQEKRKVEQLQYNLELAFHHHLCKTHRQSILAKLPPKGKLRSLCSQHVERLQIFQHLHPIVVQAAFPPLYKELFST
As to the kind of experiment: Gal4 ligand binding assay (RORγt Gal fusion reporter assay). It is filed as cell-based. Conditions: inverse agonists, luciferase reporter, 24h. In outline:
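GAL4-DBD/RORγ(t) fusion stably expressed with a Gal4-UAS luciferase reporter in […] cells, which are constitutively active. Compounds were given as 2× media with 10 points from 60 μM to 3 nM (final DMSO 0.2%) for 24 h at 37° C, 5% CO2. Luminescence was normalized to DMSO control wells.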
A general note: Reporter assays use an easily measured gene product as a stand-in for the process of interest.
`Cc1cc(CN2CC3CCC(C2)N3S(=O)(=O)CC(F)(F)F)ccc1-c1ccc(C(O)(C(F)(F)F)C(F)(F)F)cc1` [Example 67, 1,1,1,3,3,3-hexafluoro-2-(2′-methyl-4′-((8-((2,2,2-trifluoroethyl)sulfonyl)-3,8-diazabicyclo[3.2.1]octan-3-yl)methyl)-[1,1′-biphenyl]-4-yl)propan-2-ol]: the half-maximal inhibitory concentration (IC50) – broadly, the point on the concentration scale where inhibition reaches its midpoint – is above 250 nM.

Consider `CCCS(=O)(=O)N1C2CCC1CN(Cc1ccc(-c3ccc(C(O)(C(F)(F)F)C(F)(F)F)cc3)c(C)c1)C2` [Example 68, 1,1,1,3,3,3-hexafluoro-2-(2′-methyl-4′-((8-(propylsulfonyl)-3,8-diazabicyclo[3.2.1]octan-3-yl)methyl)-[1,1′-biphenyl]-4-yl)propan-2-ol], for which the IC50 was above 250 nM. Compound `CCS(=O)(=O)N1C2CCC1CN(Cc1ccc(-c3ccc(C(O)(C(F)(F)F)C(F)(F)F)cc3)c(C)c1)C2` [Example 69, 2-(4′-((8-(ethylsulfonyl)-3,8-diazabicyclo[3.2.1]octan-3-yl)methyl)-2'-methyl-[1,1′-biphenyl]-4-yl)-1,1,1,3,3,3-hexafluoropropan-2-ol] yielded a half-inhibitory concentration (IC50) above 250 nM. The result for `Cc1cc(CN2CC3CCC(C2)N3Cc2ccnc(O)c2)ccc1-c1ccc(C(O)(C(F)(F)F)C(F)(F)F)cc1` [Example 70, 4-((3-((4′-(1,1,1,3,3,3-hexafluoro-2-hydroxypropan-2-yl)-2-methyl-[1,1′-biphenyl]-4-yl)methyl)-3,8-diazabicyclo[3.2.1]octan-8-yl)methyl)pyridin-2-ol] reads above 250 nM; that for `CC(=O)N1C2CCC1CN(Cc1ccc(-c3ccc(C(O)(C(F)(F)F)C(F)(F)F)cc3)c(C)c1)C2` [Example 71, 1-(3-((4′-(1,1,1,3,3,3-hexafluoro-2-hydroxypropan-2-yl)-2-methyl-[1,1′-biphenyl]-4-yl)methyl)-3,8-diazabicyclo[3.2.1]octan-8-yl)ethan-1-one], 50 to 250 nM; that for `Cc1cc(CN2CC3CC2CN3Cc2ccncc2)ccc1-c1ccc(C(O)(C(F)(F)F)C(F)(F)F)cc1` (stereo not drawn) [Example 72, 1,1,1,3,3,3-hexafluoro-2-(2′-methyl-4′-((5-(pyridin-4-ylmethyl)-2,5-diazabicyclo[2.2.1]heptan-2-yl)methyl)-[1,1′-biphenyl]-4-yl)propan-2-ol], above 250 nM. Next, `Cc1cc(CN2CC3CCC(C2)N3S(C)(=O)=O)ccc1-c1ccc(C(O)(C(F)(F)F)C(F)(F)F)cc1` [Example 73, 1,1,1,3,3,3-hexafluoro-2-(2′-methyl-4′-((8-(methylsulfonyl)-3,8-diazabicyclo[3.2.1]octan-3-yl)methyl)-[1,1′-biphenyl]-4-yl)propan-2-ol]: 50 to 250 nM; `Cc1cc(CN2CC3CCC(C2)N3C(=O)Cc2c(F)cccc2F)ccc1-c1ccc(C(O)(C(F)(F)F)C(F)(F)F)cc1` [Example 74, 2-(2,6-difluorophenyl)-1-(3-((4′-(1,1,1,3,3,3-hexafluoro-2-hydroxypropan-2-yl)-2-methyl-[1,1′-biphenyl]-4-yl)methyl)-3,8-diazabicyclo[3.2.1]octan-8-yl)ethan-1-one]: above 250 nM; `Cc1cc(CN2CC3CCC(C2)N3C(=O)c2ccncc2)ccc1-c1ccc(C(O)(C(F)(F)F)C(F)(F)F)cc1` [Example 75, (3-((4′-(1,1,1,3,3,3-hexafluoro-2-hydroxypropan-2-yl)-2-methyl-[1,1′-biphenyl]-4-yl)methyl)-3,8-diazabicyclo[3.2.1]octan-8-yl)(pyridin-4-yl)methanone]: 50 to 250 nM. Compound `Cc1cc(CN2CC3CCC2CN3Cc2ccncc2)ccc1-c1ccc(C(O)(C(F)(F)F)C(F)(F)F)cc1` (stereo not drawn) [Example 76, 1,1,1,3,3,3-hexafluoro-2-(2′-methyl-4′-((5-(pyridin-4-ylmethyl)-2,5-diazabicyclo[2.2.2]octan-2-yl)methyl)-[1,1′-biphenyl]-4-yl)propan-2-ol] showed a half-maximal inhibitory concentration (IC50) of 50 to 250 nM. Next, `Cc1cc(CN2CC3CCC(C2)N3Cc2ccc(F)cc2)ccc1-c1ccc(C(O)(C(F)(F)F)C(F)(F)F)cc1` [Example 77, 1,1,1,3,3,3-hexafluoro-2-(4′-((8-(4-fluorobenzyl)-3,8-diazabicyclo[3.2.1]octan-3-yl)methyl)-2′-methyl-[1,1'-biphenyl]-4-yl)propan-2-ol]: above 250 nM; `Cc1cc(CN2CC3CCC(C2)N3Cc2ccncc2)ccc1-c1ccc(C(O)(C(F)(F)F)C(F)(F)F)cc1` [Example 78, 1,1,1,3,3,3-hexafluoro-2-(2′-methyl-4′-((8-(pyridin-4-ylmethyl)-3,8-diazabicyclo[3.2.1]octan-3-yl)methyl)-[1,1′-biphenyl]-4-yl)propan-2-ol]: below 50 nM.
